Experimental data reported in PubChem BioAssay (NCI).
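Results reflect a 48-hour exposure of cells in 96-well plates to compound at five concentrations. TGI is the concentration that stops growth completely.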

Assays:
Test in all cases: inhibition of tumour cell growth, NCI panel, 48 h
SNB-75 CNS = tested on: SNB-75 CNS
BT-549 breast = tested on: BT-549 breast
HOP-62 NSCLC = tested on: HOP-62 NSCLC
KM12 colon = tested on: KM12 colon
SF-268 CNS = tested on: SF-268 CNS
SK-MEL-28 melanoma = tested on: SK-MEL-28 melanoma
SNB-19 CNS = tested on: SNB-19 CNS
OVCAR-5 ovarian = tested on: OVCAR-5 ovarian
NCI-H460 lung = tested on: NCI-H460 lung
SR leukemia = tested on: SR leukemia
MDA-MB-231 breast = tested on: MDA-MB-231 breast
786-0 renal = tested on: 786-0 renal
NCI-H522 lung = tested on: NCI-H522 lung
MOLT-4 leukemia = tested on: MOLT-4 leukemia
M14 melanoma = tested on: M14 melanoma
HOP-92 NSCLC = tested on: HOP-92 NSCLC
SW-620 colon = tested on: SW-620 colon
SF-295 CNS = tested on: SF-295 CNS
HCC-2998 colon = tested on: HCC-2998 colon
A498 renal = tested on: A498 renal

| SMILES | TGI (SNB-75 CNS) [µM] | TGI (BT-549 breast) [µM] | TGI (HOP-62 NSCLC) [µM] | TGI (KM12 colon) [µM] | TGI (SF-268 CNS) [µM] | TGI (SK-MEL-28 melanoma) [µM] | TGI (SNB-19 CNS) [µM] | TGI (OVCAR-5 ovarian) [µM] | TGI (NCI-H460 lung) [µM] | TGI (SR leukemia) [µM] | TGI (MDA-MB-231 breast) [µM] | TGI (786-0 renal) [µM] | TGI (NCI-H522 lung) [µM] | TGI (MOLT-4 leukemia) [µM] | TGI (M14 melanoma) [µM] | TGI (HOP-92 NSCLC) [µM] | TGI (SW-620 colon) [µM] | TGI (SF-295 CNS) [µM] | TGI (HCC-2998 colon) [µM] | TGI (A498 renal) [µM] |
| --- | --- | --- | --- | --- | --- | --- | --- | --- | --- | --- | --- | --- | --- | --- | --- | --- | --- | --- | --- | --- |
| COC(=O)/C=C\COCC1C2CCC(=O)C21 (centres undefined) | > 25 | > 25 | > 25 | > 25 | > 25 | > 25 | > 25 | > 25 | 24.3 | > 25 | > 25 | > 25 | 7.83 | 20.7 | > 25 | 10.6 | > 25 | > 25 | > 25 |  |
| COc1cc(C2=C(c3cc(OC)c4ccccc4c3OC)C(=O)c3ccccc3C2=O)c(OC)c2ccccc12 | > 100 | > 100 | > 100 | > 100 | > 100 | > 100 | > 100 | > 100 | > 100 | > 100 |  | > 100 | > 100 | > 100 | > 100 | > 100 | > 100 | > 100 |  | > 100 |
| CN1CN(c2ccccc2)C2(CCN(Cc3csc4ccccc34)CC2)C1=O | > 100 | 20.5 | 87.5 | 26.8 | > 100 | 68.7 | > 100 | 25.1 |  | 23.2 |  | > 100 | 35.7 | 29.6 | 39.8 |  | > 100 | 26.6 | 42.5 |  |
| COC(=O)C1CC2CCC1(O[Si](C(C)C)(C(C)C)C(C)C)C(O)C2 (centres undefined) | > 100 | 79.3 | 44.1 | 38.6 | 79.2 | 44.9 | 44.2 | 27.2 | > 100 | 26.6 | 38.9 | 31.5 | 44.7 | 30.1 | 32.7 |  | 60.8 | 47.2 | 46 | > 100 |
| CN1CCN(C(=S)N(C(=O)c2ccc(Cl)cc2)c2ccccc2)CC1 | > 100 | > 100 |  | > 100 | > 100 | > 100 | > 100 | > 100 | > 100 | > 100 | > 100 | > 100 | > 100 | > 100 | > 100 | > 100 | > 100 | > 100 | > 100 |  |
| O=C(O)c1cc(CC2Cc3cc4c(cc3C2=O)CCC4)cc2c1CCC2 (centres undefined) | > 100 | > 100 | > 100 | > 100 | > 100 | > 100 | > 100 | > 100 | > 100 | > 100 | > 100 | > 100 | > 100 | > 100 | > 100 |  | > 100 | > 100 | > 100 | > 100 |
| CCc1cccc(C(C)(C)C)c1NC(=S)N/C=C(/C#N)C(N)=O | > 100 | > 100 | > 100 | > 100 | > 100 | > 100 | > 100 | > 100 | > 100 |  | > 100 | > 100 | > 100 | > 100 | > 100 | 72 | > 100 | > 100 | > 100 | > 100 |
| Fc1ccc(C(OCCN2CCN(CCCCl)CC2)c2ccc(F)cc2)cc1 |  | 83.6 | > 100 | 38 | 77.5 | > 100 | > 100 | 63.9 | 55.5 | 61.9 | 75.5 | 94.6 | 36.8 | > 100 | 39.5 | 49 | > 100 | 58.1 | 42.5 | 46.4 |
| CN(CCNC(=O)c1nn(-c2ccccc2)c2c1Cc1ccccc1-2)CCNC(=O)c1nn(-c2ccccc2)c2c1Cc1ccccc1-2 | 3.5 | 18.7 | 3.6 | 3.69 | 4.74 | 3.24 | 4.43 | 6.8 | 3.15 |  | 3.39 | 3.08 | 3.15 | 11 | 3.27 | 3.01 | 3.09 | 3.34 | 3.13 | 3.36 |
| CC(Cc1ccccc1)Nc1ncnc2c1ncn2C1OC(CO)CC1O (centres undefined) | > 100 | > 100 | > 100 | > 100 | > 100 | > 100 | > 100 | > 100 | > 100 |  | > 100 | > 100 | > 100 | > 100 | > 100 | > 100 | > 100 | 6.21 | > 100 | > 100 |
| CC(=O)N1C(OC(C)C)CC(C)N1c1ccccc1 (centres undefined) | > 10 | > 10 | > 10 |  | > 10 | > 10 | > 10 | > 10 | > 10 | > 10 | > 10 | > 10 |  | > 10 | > 10 | > 10 | > 10 | > 10 | > 10 |  |
| CN1CC[C@]23c4c5ccc(O)c4O[C@H]2C(O)CC[C@@]3(O)[C@H]1C5 (some centres undefined) |  | > 100 | > 100 | > 100 | > 100 | > 100 | > 100 | > 100 |  | > 100 | > 100 | > 100 | > 100 | > 100 | > 100 | > 100 | > 100 | > 100 |  | > 100 |
